Laboratory results taken from patent US7368578B2, “Five-membered heterocyclic compounds” (Takeda Pharmaceutical Company Limited, priority 2002, dated 2008).

melting point | SMILES
95 to 96 °C | CCOC(=O)/C=C/c1nc(COc2ccc(COc3nn(-c4ccccc4)cc3/C=C/c3csc(CC)n3)cc2OC)c(C)o1 [Example 322 (E form), ethyl (2E)-3-[4-({4-[({4-[(E)-2-(2-ethyl-1,3-thiazol-4-yl)ethenyl]-1-phenyl-1H-pyrazol-3-yl}oxy)methyl]-2-methoxyphenoxy}methyl)-5-methyl-1,3-oxazol-2-yl]-2-propenoate]
119 to 120 °C | CCOC(=O)/C=C/c1nc(COc2ccc(COc3nn(-c4ccccc4)cc3/C=C\c3csc(CC)n3)cc2OC)c(C)o1 [Example 322 (Z form), ethyl (2E)-3-[4-({4-[({4-[(Z)-2-(2-ethyl-1,3-thiazol-4-yl)ethenyl]-1-phenyl-1H-pyrazol-3-yl}oxy)methyl]-2-methoxyphenoxy}methyl)-5-methyl-1,3-oxazol-2-yl]-2-propenoate]
125 to 126 °C | CCc1nc(/C=C/c2cn(-c3ccccc3)nc2OCc2ccc(OCc3nc(/C=C/C(=O)O)oc3C)c(OC)c2)cs1 [Example 323, (2E)-3-[4-({4-[({4-[(E)-2-(2-ethyl-1,3-thiazol-4-yl)ethenyl]-1-phenyl-1H-pyrazol-3-yl}oxy)methyl]-2-methoxyphenoxy}methyl)-5-methyl-1,3-oxazol-2-yl]-2-propenoic acid]
145 to 146 °C | CCOC(=O)c1ccc(-c2nc(COc3ccc(COc4nn(-c5ccccc5)cc4/C=C/c4csc(CC)n4)cc3OC)c(C)o2)s1 [Example 330 (E form), ethyl 5-[4-({4-[({4-[(E)-2-(2-ethyl-1,3-thiazol-4-yl)ethenyl]-1-phenyl-1H-pyrazol-3-yl}oxy)methyl]-2-methoxyphenoxy}methyl)-5-methyl-1,3-oxazol-2-yl]thiophene-2-carboxylate]
118 to 119 °C | CCOC(=O)c1ccc(-c2nc(COc3ccc(COc4nn(-c5ccccc5)cc4/C=C\c4csc(CC)n4)cc3OC)c(C)o2)s1 [Example 330 (Z form), ethyl 5-[4-({4-[({4-[(Z)-2-(2-ethyl-1,3-thiazol-4-yl)ethenyl]-1-phenyl-1H-pyrazol-3-yl}oxy)methyl]-2-methoxyphenoxy}methyl)-5-methyl-1,3-oxazol-2-yl]thiophene-2-carboxylate]
150 to 151 °C | CCc1nc(/C=C/c2cn(-c3ccccc3)nc2OCc2ccc(OCc3nc(-c4ccc(C(=O)O)s4)oc3C)c(OC)c2)cs1 [Example 331, 5-[4-({4-[({4-[(E)-2-(2-ethyl-1,3-thiazol-4-yl)ethenyl]-1-phenyl-1H-pyrazol-3-yl}oxy)methyl]-2-methoxyphenoxy}methyl)-5-methyl-1,3-oxazol-2-yl]thiophene-2-carboxylic acid]
140 to 141 °C | CCOC(=O)Cc1ccc(-c2nc(COc3ccc(COc4nn(-c5ccccc5)cc4/C=C/c4csc(CC)n4)cc3OC)c(C)o2)cc1 [Example 338, ethyl {4-[4-({4-[({4-[(E)-2-(2-ethyl-1,3-thiazol-4-yl)ethenyl]-1-phenyl-1H-pyrazol-3-yl}oxy)methyl]-2-methoxyphenoxy}methyl)-5-methyl-1,3-oxazol-2-yl]phenyl}acetate]
136 to 137 °C | CCOC(=O)Cc1ccc(-c2nc(COc3ccc(COc4nn(-c5ccccc5)cc4/C=C\c4csc(CC)n4)cc3OC)c(C)o2)cc1 [Example 338, ethyl {4-[4-({4-[({4-[(Z)-2-(2-ethyl-1,3-thiazol-4-yl)ethenyl]-1-phenyl-1H-pyrazol-3-yl}oxy)methyl]-2-methoxyphenoxy}methyl)-5-methyl-1,3-oxazol-2-yl]phenyl}acetate]
153 to 155 °C | CCOC(=O)Cc1ccc(-c2nc(COc3ccc(COc4nn(-c5ccccc5)cc4/C=C/c4csc(C)n4)cc3OC)c(C)o2)cc1 [Example 356, ethyl {4-[4-({2-methoxy-4-[({4-[(E)-2-(2-methyl-1,3-thiazol-4-yl)ethenyl]-1-phenyl-1H-pyrazol-3-yl}oxy)methyl]phenoxy}methyl)-5-methyl-1,3-oxazol-2-yl]phenyl}acetate]
89 to 90 °C | CCOC(=O)Cc1ccc(-c2nc(COc3ccc(COc4nn(-c5ccccc5)cc4/C=C/c4csc(C(C)C)n4)cc3OC)c(C)o2)cc1 [Example 360, ethyl {4-[4-({4-[({4-[(E)-2-(2-isopropyl-1,3-thiazol-4-yl)ethenyl]-1-phenyl-1H-pyrazol-3-yl}oxy)methyl]-2-methoxyphenoxy}methyl)-5-methyl-1,3-oxazol-2-yl]phenyl}acetate]
126 to 127 °C | CCOC(=O)Cc1ccc(-c2nc(COc3ccc(COc4nn(-c5ccccc5)cc4/C=C\c4csc(C(C)C)n4)cc3OC)c(C)o2)cc1 [Example 360, ethyl {4-[4-({4-[({4-[(Z)-2-(2-isopropyl-1,3-thiazol-4-yl)ethenyl]-1-phenyl-1H-pyrazol-3-yl}oxy)methyl]-2-methoxyphenoxy}methyl)-5-methyl-1,3-oxazol-2-yl]phenyl}acetate]
204 to 205 °C | COc1cc(COc2nn(-c3ccccc3)cc2/C=C/c2csc(CO)n2)ccc1OCc1nc(-c2ccc(CC(=O)O)cc2)oc1C [Example 365, (4-{4-[(4-{[(4-{(E)-2-[2-(hydroxymethyl)-1,3-thiazol-4-yl]ethenyl}-1-phenyl-1H-pyrazol-3-yl)oxy]methyl}-2-methoxyphenoxy)methyl]-5-methyl-1,3-oxazol-2-yl}phenyl)acetic acid]
155 to 157 °C | CCOC(=O)Cc1ccc(-c2nc(COc3ccc(COc4nn(-c5ccccc5)cc4/C=C/c4coc(CC)n4)cc3OC)c(C)o2)cc1 [Example 366, ethyl {4-[4-({4-[({4-[(E)-2-(2-ethyl-1,3-oxazol-4-yl)ethenyl]-1-phenyl-1H-pyrazol-3-yl}oxy)methyl]-2-methoxyphenoxy}methyl)-5-methyl-1,3-oxazol-2-yl]phenyl}acetate]
138 to 140 °C | CCc1nc(/C=C/c2cn(-c3ccccc3)nc2OCc2ccc(OCc3nc(-c4cccc(C#N)c4)oc3C)c(OC)c2)cs1 [Example 372, 3-[4-({4-[({4-[(E)-2-(2-ethyl-1,3-thiazol-4-yl)ethenyl]-1-phenyl-1H-pyrazol-3-yl}oxy)methyl]-2-methoxyphenoxy}methyl)-5-methyl-1,3-oxazol-2-yl]benzonitrile]

Second part, the compound before the results:

SMILES | melting point
CCOC(=O)C1CCN(c2nc(COc3ccc(COc4nn(-c5ccccc5)cc4C=O)cc3OC)c(C)s2)CC1 [Example 324, ethyl 1-(4-[(4-{[(4-formyl-1-phenyl-1H-pyrazol-3-yl)oxy]methyl}-2-methoxyphenoxy)methyl]-5-methyl-1,3-thiazol-2-yl}piperidine-4-carboxylate] | 126 to 127 °C
CCOC(=O)c1ccc(-c2nc(COc3ccc(COc4nn(-c5ccccc5)cc4C=O)cc3OC)c(C)o2)s1 [Example 327, ethyl 5-{4-[(4-{[(4-formyl-1-phenyl-1H-pyrazol-3-yl)oxy]methyl}-2-methoxyphenoxy)methyl]-5-methyl-1,3-oxazol-2-yl}thiophene-2-carboxylate] | 156 to 157 °C
COc1cc(COc2nn(-c3ccccc3)cc2C=O)ccc1OCc1nc(-c2cccc(C#N)c2)oc1C [Example 332, 3-{4-[(4-{[(4-formyl-1-phenyl-1H-pyrazol-3-yl)oxy]methyl)-2-methoxyphenoxy}methyl]-5-methyl-1,3-oxazol-2-yl}benzonitrile] | 161 to 162 °C
CCOC(=O)Cc1ccc(-c2nc(COc3ccc(COc4nn(-c5ccccc5)cc4/C=C/c4cncn4CC)cc3OC)c(C)o2)cc1 [Example 340, ethyl {4-[4-({4-[({4-[(E)-2-(1-ethyl-1H-imidazol-5-yl)ethenyl]-1-phenyl-1H-pyrazol-3-yl}oxy)methyl]-2-methoxyphenoxy)methyl)-5-methyl-1,3-oxazol-2-yl]phenyl}acetate] | 134 to 135 °C
CCOC(=O)Cc1ccc(-c2nc(COc3ccc(COc4nn(-c5ccccc5)cc4/C=C\c4cncn4CC)cc3OC)c(C)o2)cc1 [Example 340, ethyl {4-[4-({4-[({4-[(Z)-2-(1-ethyl-1H-imidazol-5-yl)ethenyl]-1-phenyl-1H-pyrazol-3-yl}oxy)methyl]-2-methoxyphenoxy}methyl)-5-methyl-1,3-oxazol-2-yl]phenyl}acetate] | 85 to 86 °C
CCOC(=O)Cc1ccc(-c2nc(COc3ccc(COc4nn(-c5ccccc5)cc4/C=C/c4cn(CC)cn4)cc3OC)c(C)o2)cc1 [Example 343, ethyl (4-{4-[(4-[({4-[(E)-2-(1-ethyl-1H-imidazol-4-yl)ethenyl]-1-phenyl-1H-pyrazol-3-yl}oxy)methyl]-2-methoxyphenoxy)methyl]-5-methyl-1,3-oxazol-2-yl}phenyl)acetate] | 140 to 141 °C
CCOC(=O)Cc1ccc(-c2nc(COc3ccc(COc4nn(-c5ccccc5)cc4/C=C\c4cnn(CC)c4)cc3OC)c(C)o2)cc1 [Example 346, ethyl {4-[4-({4-[({4-[(Z)-2-(1-ethyl-1H-pyrazol-4-yl)ethenyl]-1-phenyl-1H-pyrazol-3-yl}oxy)methyl]-2-methoxyphenoxy}methyl)-5-methyl-1,3-oxazol-2-yl]phenyl}acetate] | 140 to 141 °C
COc1cc(CN(C)c2nn(-c3ccccc3)cc2C=O)ccc1OCc1nc(-c2ccco2)oc1C [Example 349, 3-([4-{[2-(2-furyl)-5-methyl-1,3-oxazol-4-yl]methoxy}-3-methoxybenzyl](methyl)amino)-1-phenyl-1H-pyrazole-4-carbaldehyde] | 101 to 102 °C
CCOC(=O)Cc1ccc(-c2nc(COc3ccc(COc4nn(-c5ccccc5)cc4/C=C/c4coc(C(C)C)n4)cc3OC)c(C)o2)cc1 [Example 367, ethyl {4-[4-({4-[({4-[(E)-2-(2-isopropyl-1,3-oxazol-4-yl)ethenyl]-1-phenyl-1H-pyrazol-3-yl}oxy)methyl]-2-methoxyphenoxy}methyl)-5-methyl-1,3-oxazol-2-yl]phenyl}acetate] | 106 to 108 °C
CCOC(=O)Cc1ccc(-c2nc(COc3ccc(COc4nn(-c5ccccc5)cc4/C=C/c4coc(C(C)(C)C)n4)cc3OC)c(C)o2)cc1 [Example 368, ethyl {4-[4-({4-[({4-[(E)-2-(2-tert-butyl-1,3-oxazol-4-yl)ethenyl]-1-phenyl-1H-pyrazol-3-yl}oxy)methyl]-2-methoxyphenoxy}methyl)-5-methyl-1,3-oxazol-2-yl]phenyl}acetate] | 126 to 129 °C
